The values that follow are results of earlier work, collected in US8362266B2, “Method of manufacturing a ruthenium complex” (Niiki Pharma Inc., priority 2007, dated 2013).

For this series, the system named is broad spectrum of cancer cells. To be noted: background statement citing Kapitza et al., J. Cancer Res. Clin. Oncol. 131(2):101-10 (2005).

Each structure is given as a SMILES string.

With `[Cl-].[Cl-].[Cl-].[Cl-].[Ru+3].c1ccc2[nH][nH+]cc2c1.c1ccc2[nH]ncc2c1.c1ccc2[nH]ncc2c1` [KP1099, indazolium trans-[tetrachlorobis(1H-indazole)ruthenate (III)]], the inducing apoptosis entry is reported as “highly potent”.

In the case of `[Cl][Ru-]([Cl])([Cl])[Cl].[Na+].c1ccc2[nH]ncc2c1.c1ccc2[nH]ncc2c1` [KP1339, sodium trans-[tetrachlorobis(1H-indazole)ruthenate (III)]], the inducing apoptosis result is reported as “highly potent”.
